Test results reported in patent US7862798B2, “Vitamin-targeted imaging agents” (Endocyte, Inc., priority 2002, dated 2011).
Several values for one entry are separate records, joined by “and”; a condition that tells them apart may be missing. Equal values may be shown once.

Assays:
[1] = HPLC speciation of the 99mTc-EC20 standard in saline over 6 hr; type: physicochemical; settings: for Area Percent, Sum C and D / Area Percent, peak A (pertechnetate) / Area Percent, peak B (unknown) / Area Percent, peak C (isomer 1) / Area Percent, peak D (isomer 2): 99mTc-EC20 Standard
Description: (§1) The urinary HPLC speciation profile of ^99mTc-EC20 was obtained using Balb/c mice. Mice (˜20 g each) were injected with 1 mCi (6.7 nmol) of ^99mTc-EC20 via a lateral tail vein. Following a 1, 4, or 6 hour time period, groups of two mice were euthanized by CO2 asphyxiation and urine was collected. After filtration through a GV13 Millex filter, the radiochemical speciation was assessed using an HPLC system equipped with a Nova-Pak C18 3.9×150 mm column and a radiochemical detector. The system was isocratically eluted with 20% methanol containing 0.1% TFA at a flow rate of 1 mL/minute.
It was previously determined that the primary elimination route for ^111In-DTPA-Folate was via the urine. […] As shown in Table 4 (below), the radiochemical purity of the standard (sum of peaks C and D presumably corresponding to the syn and anti ^99mTc-EC20) remained constant at ˜93% over the 6 hr duration of this experiment. The amount of free ^99mTc in the standard (peak A) was ˜2%.

[2] = Urinary excretion and metabolism (HPLC speciation of urine); type: in vivo, Balb/c mice
Description: as §1

[3] = test system: FR-positive M109 and FR-negative 4T1 tumors; test: Tissue distribution, M109 and 4T1 tumor models (Example 15); type: in vivo, Balb/c mice; settings: four hours post i.v. injection
Description: The protocols used in this example are similar to those described in Example 11.
Syngeneic, FR-positive M109 tumor cells (2×10^6 Po per animal) or FR-negative 4T1 cells (5×10^5 Po per animal) were inoculated subcutaneously in 100 μl of folate-free RPMI-1640 containing 1% syngeneic mouse serum.
Sixteen days after tumor cell inoculation, the animals were injected intravenously with 500 or 1800 nmoles/kg of EC20 for M109 tumor-bearing animals and 500 nmoles/kg of EC20 for 4T1 tumor-bearing animals (3 mice per dose group). All injections were in 100 μl volumes. […] Selected tissues (heart, lungs, liver, spleen, kidney, intestines, stomach, muscle, and tumor) were removed, weighed, and counted in an automatic gamma counter to determine ^99mTc distribution. Uptake of the radiopharmaceutical in terms of percentage injected dose of wet weight tissue (% ID/g) was calculated by reference to standards prepared from dilutions of the injected preparation.

[4] = Radiochemical stability by HPLC; type: physicochemical; settings: room temperature, protected from light, at least 24 hours
Description: The radiochemical stability of the radioactive drug substance was determined by HPLC after storing at room temperature protected from light for up to 24 hours. Samples of the ^99mTc-EC20 solution (20 μL) were analyzed using an HPLC system consisting of a Waters 600E Multisolvent Delivery System and 490 UV detector, a Bioscan EC-3200 radiodetector, Laura v1.5 radiochromatogram software, and a Waters Nova-Pak C18 (3.9×150 mm) column. Injected samples were eluted isocratically using an aqueous mobile phase containing 20% methanol and 0.1% trifluoroacetic acid at a flow rate of 1 mL/min. The HPLC analysis was monitored with both the UV detector (280 nm) and the gamma radiodetector.

With `[NH-][C@@H](CNC(=O)CC[C@@H](NC(=O)c1ccc(NCc2cnc3nc(N)[nH]c(=O)c3n2)cc1)C(=O)O)C(=O)[N-][C@@H](CC(=O)O)C(=O)[N-][C@@H](C[S-])C(=O)O.[O]=[Tc+4]` [^99mTc-EC20] the “Area Percent, Sum C and D” value ([1]; 0 hr) was 93.5 Area Percent, the “Area Percent, peak A (pertechnetate)” value ([1]; 0 hr) was 2 Area Percent and the “Area Percent, peak B (unknown)” value ([1]; 0 hr) was 4.5 Area Percent. The “Area Percent, peak C (isomer 1)” value ([1]; 0 hr) was 15.5 Area Percent, the “Area Percent, peak D (isomer 2)” value ([1]; 0 hr) was 78 Area Percent and the “Area Percent, Sum C and D” value ([1]; 1 hr) was 93.4 Area Percent. For the same molecule, the “Area Percent, peak A (pertechnetate)” value ([1]; 1 hr) was 2.1 Area Percent, the “Area Percent, peak B (unknown)” value ([1]; 1 hr) was 4.5 Area Percent and the “Area Percent, peak C (isomer 1)” value ([1]; 1 hr) was 15.7 Area Percent. For the same molecule, the “Area Percent, peak D (isomer 2)” value ([1]; 1 hr) was 77.7 Area Percent, the “Area Percent, Sum C and D” value ([1]; 6 hr) was 93.4 Area Percent and the “Area Percent, peak A (pertechnetate)” value ([1]; 6 hr) was 1.8 Area Percent. The “Area Percent, peak B (unknown)” value ([1]; 6 hr) was 4.8 Area Percent, the “Area Percent, peak C (isomer 1)” value ([1]; 6 hr) was 15.9 Area Percent and the “Area Percent, peak D (isomer 2)” value ([1]; 6 hr) was 77.5 Area Percent. The “radiochemical purity of the standard (sum of peaks C and D)” value ([1]; constant over the 6 hr duration, saline solution) was about 93%, the “free 99mTc in the standard (peak A)” value ([1]; saline solution) was about 2% and the “form excreted into the urine” value ([2]; Balb/c mice, i.v.) was “predominately excreted into the urine in an unmodified form”. For the same molecule, the “proportion of parent drug among radioactive species recovered in urine” value ([2]; throughout four hours post-injection) was “approximately 90%”, the “Area Percent, Sum C and D (intact 99mTc-EC20)” value ([2]; urine samples, 1 hr, two mice) was 89.2 Area Percent and 91.1 Area Percent and the “Area Percent, peak A (pertechnetate)” value ([2]; urine samples, 1 hr, two mice) was 8.3 Area Percent and 6.3 Area Percent. For the same molecule, the “Area Percent, peak B (unknown)” value ([2]; urine samples, 1 hr, two mice) was 2.5 Area Percent and 2.6 Area Percent, the “Area Percent, peak C (isomer 1)” value ([2]; urine samples, 1 hr, two mice) was 20.4 Area Percent and 18.1 Area Percent and the “Area Percent, peak D (isomer 2)” value ([2]; urine samples, 1 hr, two mice) was 68.8 Area Percent and 73 Area Percent. The “Area Percent, Sum C and D (intact 99mTc-EC20)” value ([2]; urine samples, 4 hr, two mice) was 85.2 Area Percent and 89.8 Area Percent, the “Area Percent, peak A (pertechnetate)” value ([2]; urine samples, 4 hr, two mice) was 9.4 Area Percent and 10.2 Area Percent and the “Area Percent, peak C (isomer 1)” value ([2]; urine samples, 4 hr, two mice) was 7.3 Area Percent and 11.1 Area Percent. The “Area Percent, peak D (isomer 2)” value ([2]; urine samples, 4 hr, two mice) was 77.9 Area Percent and 78.7 Area Percent, the “uptake in FR-negative 4T1 tumors lower than in FR-positive M109 tumors” value [3] was 7.6 fold and the “uptake in normal tissues, except kidney” value [3] was “low”. The “radiochemical purity on storage” value [4] was “greater than 90%”.
